“And” between values parts separate entries of the source, which are not always exact repeats. Equal entries are not always repeated. Toxic doses and inconclusive results are not listed.
Test system: L1210 leukemia ip in BDF1 mice, survival T/C
Assay: NCI In Vivo Anticancer Drug Screen. Data for tumor model L1210 Leukemia (intraperitoneal) in B6D2F1 (BDF1) mice
Settings: higher = longer survival
How it was run: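 Value reflects the ratio of survival in compound-treated mice to survival in vehicle-treated controls, with both groups carrying the same transplanted tumor.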

[1] = endpoint: mean survival time, dose: 75.0 mg/kg/injection, schedule: Q01DX001 (ip), vehicle: saline
[2] = endpoint: mean survival time, dose: 100.0 mg/kg/injection, schedule: Q04DX002 (ip), vehicle: Klucel (hydroxypropylcellulose) (HPC)
[3] = endpoint: mean survival time, dose: 200.0 mg/kg/injection, schedule: Q04DX002 (ip), vehicle: Klucel (hydroxypropylcellulose) (HPC)
[4] = endpoint: mean survival time, dose: 400.0 mg/kg/injection, schedule: Q04DX002 (ip), vehicle: Klucel (hydroxypropylcellulose) (HPC)

## COc1cc(NS(C)(=O)=O)ccc1Nc1c2ccccc2nc2ccccc12
endpoint: mean survival time, dose: 0.25 mg/kg/injection, schedule: Q03HX008 (ip), vehicle: other
  T/C: 120 % of control
endpoint: mean survival time, dose: 0.38 mg/kg/injection, schedule: Q01DX009 (ip), vehicle: saline with Tween-80
  T/C: 185 % of control
endpoint: mean survival time, dose: 0.75 mg/kg/injection, schedule: Q01DX009 (sc), vehicle: saline
  T/C: 118 % of control
endpoint: mean survival time, dose: 1.0 mg/kg/injection, schedule: Q01DX009 (ip), vehicle: Klucel (hydroxypropylcellulose) (HPC)
  T/C: 160 % of control
endpoint: mean survival time, dose: 1.25 mg/kg/injection, schedule: Q01DX009 (sc), vehicle: saline
  T/C: 112 % of control
endpoint: mean survival time, dose: 1.35 mg/kg/injection, schedule: Q01DX009 (ip), vehicle: acetone
  T/C: 151 % of control
endpoint: mean survival time, dose: 1.5 mg/kg/injection, schedule: Q01DX009 (sc), vehicle: saline
  T/C: 113 % of control
endpoint: mean survival time, dose: 1.56 mg/kg/injection, schedule: Q01DX009 (ip), vehicle: saline with Tween-80
  T/C: 236 % of control
endpoint: mean survival time, dose: 1.8 mg/kg/injection, schedule: Q01DX009 (ip), vehicle: water
  T/C: 150 % of control
endpoint: mean survival time, dose: 1.9 mg/kg/injection, schedule: Q01DX001 (ip), vehicle: other
  T/C: 116 % of control
endpoint: mean survival time, dose: 2.0 mg/kg/injection, schedule: Q03HX008 (ip), vehicle: other
  T/C: 203 % of control
endpoint: mean survival time, dose: 2.05 mg/kg/injection, schedule: Q01DX009 (ip), vehicle: Klucel (hydroxypropylcellulose) (HPC)
  T/C: 155 % of control
endpoint: mean survival time, dose: 2.05 mg/kg/injection, schedule: Q01DX009 (ip), vehicle: acetone
  T/C: 187 % of control
endpoint: mean survival time, dose: 2.5 mg/kg/injection, schedule: Q01DX009 (sc), vehicle: saline
  T/C: 110 % of control and 121 % of control
endpoint: mean survival time, dose: 3.0 mg/kg/injection, schedule: Q01DX009 (ip), vehicle: Klucel (hydroxypropylcellulose) (HPC)
  T/C: 176 % of control
endpoint: mean survival time, dose: 3.0 mg/kg/injection, schedule: Q01DX009 (ip), vehicle: water
  T/C: 174 % of control
endpoint: mean survival time, dose: 3.0 mg/kg/injection, schedule: Q01DX009 (sc), vehicle: saline
  T/C: 114 % of control
endpoint: mean survival time, dose: 3.07 mg/kg/injection, schedule: Q01DX009 (ip), vehicle: Klucel (hydroxypropylcellulose) (HPC)
  T/C: 157 % of control
endpoint: mean survival time, dose: 3.07 mg/kg/injection, schedule: Q01DX009 (ip), vehicle: acetone
  T/C: 188 % of control
endpoint: mean survival time, dose: 3.12 mg/kg/injection, schedule: Q01DX009 (ip), vehicle: acetone
  T/C: 188 % of control
endpoint: mean survival time, dose: 3.12 mg/kg/injection, schedule: Q01DX009 (ip), vehicle: saline with Tween-80
  T/C: 178 % of control and 216 % of control
endpoint: mean survival time, dose: 3.75 mg/kg/injection, schedule: Q01DX001 (ip), vehicle: other
  T/C: 124 % of control
endpoint: mean survival time, dose: 4.0 mg/kg/injection, schedule: Q01DX009 (ip), vehicle: Klucel (hydroxypropylcellulose) (HPC)
  T/C: 154 % of control
endpoint: mean survival time, dose: 5.0 mg/kg/injection, schedule: Q01DX009 (ip), vehicle: saline with Tween-80
  T/C: 153 % of control
endpoint: mean survival time, dose: 5.0 mg/kg/injection, schedule: Q01DX009 (ip), vehicle: water
  T/C: 113 % of control
endpoint: mean survival time, dose: 5.0 mg/kg/injection, schedule: Q01DX009 (sc), vehicle: saline
  T/C: 123 % of control
endpoint: mean survival time, dose: 6.0 mg/kg/injection, schedule: Q01DX009 (ip), vehicle: Klucel (hydroxypropylcellulose) (HPC)
  T/C: 150 % of control
endpoint: mean survival time, dose: 6.25 mg/kg/injection, schedule: Q01DX009 (ip), vehicle: acetone
  T/C: 186 % of control
endpoint: mean survival time, dose: 7.5 mg/kg/injection, schedule: Q04DX003 (ip), vehicle: other
  T/C: 156 % of control
endpoint: mean survival time, dose: 8.0 mg/kg/injection, schedule: Q01DX009 (ip), vehicle: other
  T/C: 91 % of control
endpoint: mean survival time, dose: 8.4 mg/kg/injection, schedule: Q01DX009 (ip), vehicle: water
  T/C: 89 % of control
endpoint: mean survival time, dose: 10.0 mg/kg/injection, schedule: Q01DX009 (ip), vehicle: saline with Tween-80
  T/C: 207 % of control
endpoint: mean survival time, dose: 12.5 mg/kg/injection, schedule: Q01DX009 (ip), vehicle: acetone
  T/C: 90 % of control
endpoint: mean survival time, dose: 12.5 mg/kg/injection, schedule: Q01DX009 (ip), vehicle: saline with Tween-80
  T/C: 93 % of control
endpoint: mean survival time, dose: 12.5 mg/kg/injection, schedule: Q01DX009 (ip), vehicle: saline
  T/C: 103 % of control
endpoint: mean survival time, dose: 15.0 mg/kg/injection, schedule: Q04DX003 (ip), vehicle: other
  T/C: 294 % of control
endpoint: mean survival time, dose: 18.75 mg/kg/injection, schedule: Q01DX001 (ip), vehicle: saline with Tween-80
  T/C: 160 % of control
endpoint: mean survival time, dose: 25.0 mg/kg/injection, schedule: Q01DX001 (ip), vehicle: Klucel (hydroxypropylcellulose) (HPC)
  T/C: 152 % of control
endpoint: mean survival time, dose: 30.0 mg/kg/injection, schedule: Q01DX001 (ip), vehicle: Klucel (hydroxypropylcellulose) (HPC)
  T/C: 254 % of control
endpoint: mean survival time, dose: 30.0 mg/kg/injection, schedule: Q01DX001 (ip), vehicle: other
  T/C: 91 % of control
endpoint: mean survival time, dose: 37.5 mg/kg/injection, schedule: Q01DX001 (ip), vehicle: saline with Tween-80
  T/C: 178 % of control and 270 % of control
endpoint: mean survival time, dose: 45.0 mg/kg/injection, schedule: Q01DX001 (ip), vehicle: Klucel (hydroxypropylcellulose) (HPC)
  T/C: 160 % of control
endpoint: mean survival time, dose: 50.0 mg/kg/injection, schedule: Q01DX001 (ip), vehicle: saline
  T/C: 158 % of control and 175 % of control
endpoint: mean survival time, dose: 60.0 mg/kg/injection, schedule: Q01DX001 (ip), vehicle: Klucel (hydroxypropylcellulose) (HPC)
  T/C: 160 % of control and 255 % of control
[1]
  T/C: 202 % of control and 236 % of control
endpoint: mean survival time, dose: 150.0 mg/kg/injection, schedule: Q01DX001 (ip), vehicle: saline with Tween-80
  T/C: 232 % of control
endpoint: median survival time, dose: 1.0 mg/kg/injection, schedule: Q01DX009 (sc), vehicle: other
  T/C: 121 % of control
endpoint: median survival time, dose: 2.0 mg/kg/injection, schedule: Q01DX009 (oral), vehicle: other
  T/C: 102 % of control
endpoint: median survival time, dose: 4.0 mg/kg/injection, schedule: Q01DX009 (oral), vehicle: other
  T/C: 109 % of control
endpoint: median survival time, dose: 8.0 mg/kg/injection, schedule: Q01DX009 (oral), vehicle: other
  T/C: 120 % of control
endpoint: median survival time, dose: 8.0 mg/kg/injection, schedule: Q01DX009 (sc), vehicle: other
  T/C: 98 % of control

## COC(=O)CCN(C(=O)c1ccccc1)c1ccccc1C(=O)OC
[1]
  T/C: 98 % of control
endpoint: mean survival time, dose: 150.0 mg/kg/injection, schedule: Q01DX001 (ip), vehicle: saline
  T/C: 93 % of control
endpoint: mean survival time, dose: 300.0 mg/kg/injection, schedule: Q01DX001 (ip), vehicle: saline
  T/C: 86 % of control

## CCCCNC(=O)Nc1ccccc1
endpoint: mean survival time, dose: 100.0 mg/kg/injection, schedule: Q04DX003 (ip), vehicle: Klucel (hydroxypropylcellulose) (HPC)
  T/C: 100 % of control
endpoint: mean survival time, dose: 200.0 mg/kg/injection, schedule: Q04DX003 (ip), vehicle: Klucel (hydroxypropylcellulose) (HPC)
  T/C: 112 % of control
endpoint: mean survival time, dose: 400.0 mg/kg/injection, schedule: Q04DX003 (ip), vehicle: Klucel (hydroxypropylcellulose) (HPC)
  T/C: 96 % of control

## N#CCCSCCc1ccccc1
endpoint: mean survival time, dose: 75.0 mg/kg/injection, schedule: Q01DX009 (ip), vehicle: saline with Tween-80
  T/C: 91 % of control
endpoint: mean survival time, dose: 150.0 mg/kg/injection, schedule: Q01DX009 (ip), vehicle: saline with Tween-80
  T/C: 96 % of control

## O=C(Nc1ccc(Cl)cc1)Oc1ccc(Nc2ccccc2)cc1
[2]
  T/C: 114 % of control
[3]
  T/C: 111 % of control
[4]
  T/C: 111 % of control

## Cc1noc(NC(=O)Nc2ccccc2C(F)(F)F)c1C
endpoint: mean survival time, dose: 100.0 mg/kg/injection, schedule: Q01DX009 (ip), vehicle: Klucel (hydroxypropylcellulose) (HPC)
  T/C: 95 % of control and 103 % of control
[2]
  T/C: 92 % of control and 97 % of control
endpoint: mean survival time, dose: 200.0 mg/kg/injection, schedule: Q01DX009 (ip), vehicle: Klucel (hydroxypropylcellulose) (HPC)
  T/C: 92 % of control and 118 % of control
[3]
  T/C: 101 % of control and 119 % of control
endpoint: mean survival time, dose: 400.0 mg/kg/injection, schedule: Q01DX009 (ip), vehicle: Klucel (hydroxypropylcellulose) (HPC)
  T/C: 101 % of control
[4]
  T/C: 105 % of control and 116 % of control

## C=CCN(CC=C)c1nc(-c2ccccc2)nc(-c2ccccc2)n1
endpoint: mean survival time, dose: 25.6 mg/kg/injection, schedule: Q04DX002 (ip), vehicle: saline with Tween-80
  T/C: 93 % of control
endpoint: mean survival time, dose: 64.0 mg/kg/injection, schedule: Q04DX002 (ip), vehicle: saline with Tween-80
  T/C: 93 % of control
endpoint: mean survival time, dose: 100.0 mg/kg/injection, schedule: Q04DX003 (ip), vehicle: saline with Tween-80
  T/C: 92 % of control
endpoint: mean survival time, dose: 160.0 mg/kg/injection, schedule: Q04DX002 (ip), vehicle: saline with Tween-80
  T/C: 93 % of control
endpoint: mean survival time, dose: 200.0 mg/kg/injection, schedule: Q04DX003 (ip), vehicle: saline with Tween-80
  T/C: 92 % of control
endpoint: mean survival time, dose: 400.0 mg/kg/injection, schedule: Q04DX002 (ip), vehicle: saline with Tween-80
  T/C: 89 % of control
endpoint: mean survival time, dose: 400.0 mg/kg/injection, schedule: Q04DX003 (ip), vehicle: saline with Tween-80
  T/C: 92 % of control

## Cc1ccc(N)cc1Cl
endpoint: mean survival time, dose: 100.0 mg/kg/injection, schedule: Q04DX003 (ip), vehicle: alcohol
  T/C: 97 % of control
endpoint: mean survival time, dose: 200.0 mg/kg/injection, schedule: Q04DX003 (ip), vehicle: alcohol
  T/C: 102 % of control
endpoint: mean survival time, dose: 400.0 mg/kg/injection, schedule: Q04DX003 (ip), vehicle: alcohol
  T/C: 88 % of control

From PubChem BioAssay AID248 (DTP/NCI, 2004)
